Assay results taken from patent publication US9227923B2, “Pesticidal carboxamides” (Bayer Intellectual Property GmbH, priority 2009, dated 2016).

Key:
[1] = system: Tobacco Cutworm (Spodoptera litura) Larvae; test: Test against tobacco cutworm (Spodoptera litura) larvae, leaf dip; assay type: in vivo; conditions: Spodoptera litura, foliar, 168 h; active compound concentration of 100 ppm; third instar larvae; after 7 days; read-out: insecticidal activity
How it was run: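 Sweet potato leaves were dipped in the test solution (DMF solvent, polyoxyethylene alkyl phenyl ether emulsifier), air-dried and offered to ten third-instar larvae per dish at 25 °C, with fresh leaves added on days 2 and 4. Mortality was counted at day 7 and expressed as % insecticidal activity (100% = all dead).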

[2] = system: Two-Spotted Spider Mite (Tetranychus Urticae); test: Test against two-spotted spider mite (Tetranychus urticae), spray; assay type: in vivo; conditions: active compound concentration of 100 ppm; adult mites; after 7 days
Excerpt: Solvent: 3 parts by weight of dimethylformamide
Emulsifier: 1 part by weight of polyoxyethylene alkyl phenyl ether

Boophilus microplus = Boophilus microplus test (injection); assay type: in vivo; conditions: Rhipicephalus microplus, 168 h, read-out: activity (mortality in %; 100% means that all eggs are infertile)
Description: (§1) Solvent: dimethyl sulfoxide
Five adult engorged female ticks (Boophilus microplus) are injected with […] compound solution into the abdomen. Ticks are transferred into replica plates and incubated in a climate chamber for a period of time. Egg deposition of fertile eggs is monitored.
After 7 days mortality in % is determined. 100% means that all eggs are infertile; 0% means that all eggs are fertile. […]

Ctenocephalides felis = test: whole plant or invertebrate; assay type: in vivo; conditions: Ctenocephalides felis, in Bos taurus, 48 h, read-out: activity (mortality in %)
Description: as §1
Approximately 20 adult unfed (Ctenocepahlides felis) are placed in flea chambers. […] The blood chamber is heated to 37° C. whereas the flea chamber is kept at room temperature.

[3] = system: Lucilia cuprina 1st instar larvae; test: whole plant or invertebrate; assay type: in vivo; conditions: Lucilia cuprina, 48 h, read-out: activity (percentage of larval mortality)
Description: species: Lucilia cuprina 1st instar larvae (age 24 hrs)
solvent: dimethyl sulfoxide
Serial dilutions are made to obtain the desired rates. Approximately 20 Lucilia cuprina 1st instar larvae are transferred into a test tube containing 1 cm^3 of minced horse meat and 0.5 ml aqueous dilution of test compound. After 48 hrs percentage of larval mortality are recorded. 100% efficacy=all larvae are killed, […].

Musca domestica = test: whole plant or invertebrate; conditions: 48 h, read-out: activity (mortality in %)
Description: as §1
Prior to the assay, a piece of kitchen sponge is soaked with a mixture of sugar and compound solution and placed into a container. 10 adults (Musca domestica) are placed into the container and closed with a perforated lid. After 2 days mortality in % is determined 100% means that all the flies have been killed; 0% means that none of the flies have been killed.

[4] = system: Cucurbit Leaf Beetle (Aulacophora Femoralis); test: Test against cucurbit leaf beetle (Aulacophora femoralis), leaf dip; assay type: in vivo; conditions: Aulacophora, foliar, 168 h; active compound concentration of 100 ppm; second instar larvae; after 7 days; read-out: insecticidal activity
How it was run: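 Cucumber leaves dipped in compound solution (DMF solvent, polyoxyethylene alkyl phenyl ether emulsifier), air-dried, and placed with five second-instar larvae in cups on sterilized soil at 25° C. Dead larvae counted after 7 days; activity expressed as percent larvae killed.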

CCc1cc(C(F)(C(F)(F)F)C(F)(F)F)cc(C)c1NC(=O)c1ccc(-n2cncn2)c([N+](=O)[O-])c1 [Compound 1-39, N-[2-ethyl-4-(1,1,1,2,3,3,3-heptafluoropropan-2-yl)-6-methyl-phenyl]-3-nitro-4-(1H-1,2,4-triazol-1-yl)benzamide]
100%: pest or weed control at 100 ppm [1] | acaricidal activity [2] | mortality at 0.02 mg (Boophilus microplus) | mortality at 100 ppm (Ctenocephalides felis) | mortality at 100 ppm [3] | mortality at 100 ppm (Musca domestica)

O=C(Nc1c(Br)cc(C(F)(C(F)(F)F)C(F)(F)F)cc1Br)c1ccc(-n2cncn2)cc1 [Compound 1-78, N-[2,6-dibromo-4-(1,1,1,2,3,3,3-heptafluoropropan-2-yl)-phenyl]-4-(1H-1,2,4-triazol-1-yl)benzamide]
100%: pest or weed control at 100 ppm [1] | acaricidal activity [2] | pest or weed control at 100 ppm [4] | mortality at 0.02 mg (Boophilus microplus) | mortality at 100 ppm (Ctenocephalides felis) | mortality at 100 ppm [3] | mortality at 100 ppm (Musca domestica)
